Reference: patent US12528773B2, “Non-lysosomal glucosylceramidase inhibitors and uses thereof” (ALECTOS THERAPEUTICS INC., priority 2020, dated 2026)

Experiments:
GBA2 = GBA2 (Homo sapiens (Human), UniProt Q9HCG7); test: Inhibition of GBA2 in cell lysate (4-methylumbelliferone glucopyranoside substrate); format: biochemical; settings: HEK293T-overexpressing GBA2 cellular homogenate, pH 5.5; read-out: GBA2 IC50;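 note: homogenate of stably transfected HEK293T cells pre-treated with a GCase inhibitor, test compound preincubated 5 min at 37 °C, substrate reaction 20 min at 37 °C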
[1] = test system: rat intestinal alpha-glucosidases; test: Inhibition of rat intestinal alpha-glucosidases (rat intestinal lysate, glucose detection); format: biochemical; settings: compound concentration 25 μM, sucrose as substrate
Protocol: Assay for Determination of Inhibition of Rat Intestinal Alpha-Glucosidases
Various concentrations of test compounds were prepared in DMSO and then diluted into buffer consisting of 100 mM citric acid, 200 mM disodium phosphate, pH 6.0. Rat intestinal acetone powder (Sigma) was dissolved to 12.5 mg/mL in assay buffer and sonicated in an ice bath, centrifuged, and the supernatant was collected, aliquoted and stored at −20° C. until use. On the day of the assay, the rat intestinal lysate was diluted to 6.25 mg/mL (sucrose reactions) and 2.1 mg/ml (maltose reactions) in assay buffer. The final reaction solutions for sucrose contained 2.1 mg/mL rat intestinal lysate, 40 mM sucrose, 50 or 25 μM of test compound, and 3.3% DMSO. The final reaction solution for maltose contained 0.69 mg/mL rat intestinal lysate, 10 mM maltose, 50 or 25 μM of test compound, and 3.3% DMSO. The reaction was initiated by the addition of substrate (sucrose or maltose) and allowed to proceed at 37° C. for 20 min to assess rat intestinal alpha-glycosidase activities. The reaction was stopped by addition of 20 μL of 2 M Tris-HCl, pH 7.0. The glucose produced during the reaction was detected using a commercial Amplex Red glucose detection kit from Thermo Fisher. For a full plate, the Amplex Red detection mixture was prepared by mixing 35 μL glucose oxidase, 35 μL horseradish peroxidase and 35 μL Amplex Red into 3395 μL 1× Amplex Red detection buffer. A total of 30 μL of detection mixture was added to each well. Fluorescence was measured in kinetic mode on a Biotek Synergy H4 plate reader at a wavelength of 573 nm for excitation and 610 nm for emission for 15 min and quantified from the data at 10 min. Incubations without added rat intestinal lysate were used to correct for the background amount of glucose present in the samples. Incubations without added test compound were used to define maximal enzyme activity. Percent inhibition of rat intestinal alpha-glucosidases was determined by dividing the amount of glucose detected in the presence of test compound by the amount of glucose detected in the maximal enzyme activity wells. All conditions were analyzed in triplicate. […] The final reaction solutions were the same as described above for the Amplex Red Detection kit. After a 20 min reaction time at 37° C., 100 μL of hexokinase glucose reagent was added to all test wells except for the no enzyme added control wells and no test compound added wells. The plate was incubated for a further 15 min at room temperature and the absorbance was read at 340 nm on a Biotek Synergy H4 plate reader. The percent inhibition of rat intestinal alpha-glucosidases was determined in a similar manner as described above.

Sequence of GBA2 (Q9HCG7 whole entry): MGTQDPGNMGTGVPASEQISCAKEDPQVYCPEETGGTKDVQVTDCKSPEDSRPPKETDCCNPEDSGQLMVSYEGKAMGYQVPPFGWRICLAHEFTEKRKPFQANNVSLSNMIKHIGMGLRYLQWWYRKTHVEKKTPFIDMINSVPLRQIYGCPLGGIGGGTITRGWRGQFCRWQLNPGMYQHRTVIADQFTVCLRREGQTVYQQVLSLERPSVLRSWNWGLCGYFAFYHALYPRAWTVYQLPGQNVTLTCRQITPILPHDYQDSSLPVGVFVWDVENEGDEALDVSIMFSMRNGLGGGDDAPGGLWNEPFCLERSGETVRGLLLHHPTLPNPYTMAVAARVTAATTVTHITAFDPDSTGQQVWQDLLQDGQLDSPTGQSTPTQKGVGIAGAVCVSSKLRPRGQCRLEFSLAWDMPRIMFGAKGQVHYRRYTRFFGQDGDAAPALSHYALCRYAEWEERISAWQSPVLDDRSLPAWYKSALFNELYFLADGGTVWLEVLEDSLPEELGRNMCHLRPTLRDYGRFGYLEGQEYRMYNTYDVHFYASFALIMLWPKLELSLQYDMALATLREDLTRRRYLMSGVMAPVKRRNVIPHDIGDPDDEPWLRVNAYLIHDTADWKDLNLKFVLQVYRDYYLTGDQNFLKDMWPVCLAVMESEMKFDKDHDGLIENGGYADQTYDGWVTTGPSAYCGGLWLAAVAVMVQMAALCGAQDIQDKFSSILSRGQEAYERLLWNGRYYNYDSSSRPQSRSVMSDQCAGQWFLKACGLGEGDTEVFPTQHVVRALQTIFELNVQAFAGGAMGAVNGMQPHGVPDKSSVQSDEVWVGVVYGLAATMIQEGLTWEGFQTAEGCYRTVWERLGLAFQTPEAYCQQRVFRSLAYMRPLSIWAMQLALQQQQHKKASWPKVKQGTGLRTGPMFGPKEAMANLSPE

`O[C@H]1[C@H](O)CN(CCc2cccc(Cl)c2F)C[C@@H]1O` [Example 6, (3S,4r,5R)-1-(3-chloro-2-fluorophenethyl)piperidine-3,4,5-triol] was tested. Which IC50 (GBA2) did it give?
Its IC50 is less than 100 nM.

And the “rat α-glu. (% inhib.)” value [1]?
The value was 3%.

Which results are given for `O[C@H]1[C@H](O)CN(C[C@H]2CC[C@H](OC(F)(F)F)CC2)C[C@@H]1O` [Example 189, (3S,4R,5R)-1-(((1r,4R)-4-(trifluoromethoxy)cyclohexyl)methyl)piperidine-3,4,5-triol]?
IC50 (GBA2): < 100 nM; rat α-glu. (% inhib.) [1]: 3%

How did the IC50 (GBA2) turn out when `O[C@H]1[C@H](O)CN(C[C@H]2CCN(c3ccc(C(F)(F)F)nc3)C2)C[C@@H]1O` [Example 149, (3S,4R,5R)-1-(((R)-1-(6-(trifluoromethyl)pyridin-3-yl)pyrrolidin-3-yl)methyl)piperidine-3,4,5-triol] was run?
Its IC50 is less than 100 nM.

What about the “rat α-glu. (% inhib.)” value [1] of the same molecule?
The value was 0%.

For `CC(C)c1cnc(N2CCC[C@H](CN3C[C@@H](O)[C@H](O)[C@@H](O)C3)C2)s1` [Example 32, (3S,4R,5R)-1-(((R)-1-(5-isopropylthiazol-2-yl)piperidin-3-yl)methyl)piperidine-3,4,5-triol], which IC50 (GBA2) is on record?
The IC50 was less than 100 nM.

What about the “rat α-glu. (% inhib.)” value [1] of the same molecule?
Its value is 2%.

Which IC50 (GBA2) does the source give for `O[C@H]1[C@H](O)CN(Cc2ccc(N3CCCC3)cc2)C[C@@H]1O` [Example 203, (3S,4r,5R)-1-(4-(pyrrolidin-1-yl)benzyl)piperidine-3,4,5-triol] here?
The IC50 was 100 to 1000 nM.

Which results are given for `O[C@H]1[C@H](O)CN(C[C@@H]2CCN(c3ncccc3C(F)(F)F)C2)C[C@@H]1O` [Example 24, (3S,4S,5R)-1-(((S)-1-(3-(trifluoromethyl)pyridin-2-yl)pyrrolidin-3-yl)methyl)piperidine-3,4,5-triol]?
IC50 (GBA2): < 100 nM; rat α-glu. (% inhib.) [1]: 3%

How did the IC50 (GBA2) turn out when `O[C@H]1[C@H](O)CN(C[C@@H]2CCCN(c3ccncc3C(F)(F)F)C2)C[C@@H]1O` [Example 179, (3S,4S,5R)-1-(((S)-1-(3-(trifluoromethyl)pyridin-4-yl)piperidin-3-yl)methyl)piperidine-3,4,5-triol] was run?
Its IC50 is 100 to 1000 nM.

What about the “rat α-glu. (% inhib.)” value [1] of the same molecule?
The value was 6%.

How did the IC50 (GBA2) turn out when `CC(F)(F)[C@H]1CC[C@H](CN2C[C@@H](O)[C@H](O)[C@@H](O)C2)CC1` [Example 188, (3S,4R,5R)-1-(((1r,4R)-4-(1,1-difluoroethyl)cyclohexyl)methyl)piperidine-3,4,5-triol] was run?
The IC50 was less than 100 nM.

And the “rat α-glu. (% inhib.)” value [1]?
The value was 10%.

`O[C@H]1[C@H](O)CN(C[C@@H]2CCCN(c3cccnc3C(F)(F)F)C2)C[C@@H]1O` [Example 174, (3S,4S,5R)-1-(((S)-1-(2-(trifluoromethyl)pyridin-3-yl)piperidin-3-yl)methyl)piperidine-3,4,5-triol] was tested. Which IC50 (GBA2) did it give?
The IC50 was less than 100 nM.

And the “rat α-glu. (% inhib.)” value [1]?
The value was 3%.

`O[C@H]1[C@H](O)CN(CCc2ccc(Cl)c(Cl)c2)C[C@@H]1O` [Example 8, (3S,4r,5R)-1-(3,4-dichlorophenethyl)piperidine-3,4,5-triol] was tested. Which IC50 (GBA2) did it give?
Its IC50 is less than 100 nM.

And the “rat α-glu. (% inhib.)” value [1]?
Its value is 0%.

Which IC50 (GBA2) does the source give for `O[C@H]1[C@H](O)CN(C[C@H]2CCN(c3cncc(C(F)(F)F)c3)C2)C[C@@H]1O` [Example 146, (3S,4R,5R)-1-(((R)-1-(5-(trifluoromethyl)pyridin-3-yl)pyrrolidin-3-yl)methyl)piperidine-3,4,5-triol] here?
The IC50 was less than 100 nM.

And the “rat α-glu. (% inhib.)” value [1]?
The value was 0%.

How did the IC50 (GBA2) turn out when `O[C@H]1[C@H](O)CN(C[C@@H]2CCCN(c3nc(C(F)(F)F)cs3)C2)C[C@@H]1O` [Example 39, (3S,4S,5R)-1-(((S)-1-(4-(trifluoromethyl)thiazol-2-yl)piperidin-3-yl)methyl)piperidine-3,4,5-triol] was run?
Its IC50 is 100 to 1000 nM.

What about the “rat α-glu. (% inhib.)” value [1] of the same molecule?
Its value is 0%.

What does the source list for `O[C@H]1[C@H](O)CN(CC2Cc3c(F)ccc(F)c3C2)C[C@@H]1O` [Example 190, (3S,4r,5R)-1-((4,7-difluoro-2,3-dihydro-1H-inden-2-yl)methyl)piperidine-3,4,5-triol]?
IC50 (GBA2): < 100 nM; rat α-glu. (% inhib.) [1]: 4%

With `CCCCOc1cc(F)c(CN2C[C@@H](O)[C@H](O)[C@@H](O)C2)c(F)c1` [Example 199, (3S,4r,5R)-1-(4-butoxy-2,6-difluorobenzyl)piperidine-3,4,5-triol] as the molecule, how does the IC50 (GBA2) read?
Its IC50 is 1000 to 25000 nM.

And the “rat α-glu. (% inhib.)” value [1]?
Its value is 5%.

What does the source list for `O[C@H]1[C@H](O)CN(C[C@@H]2CCCN(c3ccc(C(F)(F)F)nc3)C2)C[C@@H]1O` [Example 178, (3S,4S,5R)-1-(((S)-1-(6-(trifluoromethyl)pyridin-3-yl)piperidin-3-yl)methyl)piperidine-3,4,5-triol]?
IC50 (GBA2): 100 to 1000 nM; rat α-glu. (% inhib.) [1]: 6%

How did the IC50 (GBA2) turn out when `O[C@H]1[C@H](O)CN(C[C@H]2CC[C@H](C(F)F)CC2)C[C@@H]1O` [Example 185, (3S,4R,5R)-1-(((1r,4R)-4-(difluoromethyl)cyclohexyl)methyl)piperidine-3,4,5-triol] was run?
The IC50 was 100 to 1000 nM.

And the “rat α-glu. (% inhib.)” value [1]?
Its value is 3%.

What does the source list for `O[C@H]1[C@H](O)CN(C[C@H]2CCCN(c3cc(C(F)(F)F)ccn3)C2)C[C@@H]1O` [Example 169, (3S,4R,5R)-1-(((R)-1-(4-(trifluoromethyl)pyridin-2-yl)piperidin-3-yl)methyl)piperidine-3,4,5-triol]?
IC50 (GBA2): < 100 nM; rat α-glu. (% inhib.) [1]: 13%

Which results are given for `O[C@H]1[C@H](O)CN(C[C@H]2CC[C@@H](C(F)F)CC2)C[C@@H]1O` [Example 186, (3S,4R,5R)-1-(((1s,4S)-4-(difluoromethyl)cyclohexyl)methyl)piperidine-3,4,5-triol]?
IC50 (GBA2): 100 to 1000 nM; rat α-glu. (% inhib.) [1]: 8%

With `O[C@H]1[C@H](O)CN(C[C@H]2CCCN(c3nc(C(F)(F)F)cs3)C2)C[C@@H]1O` [Example 33, (3S,4R,5R)-1-(((R)-1-(4-(trifluoromethyl)thiazol-2-yl)piperidin-3-yl)methyl)piperidine-3,4,5-triol] as the molecule, how does the IC50 (GBA2) read?
Its IC50 is less than 100 nM.

How did the IC50 (GBA2) turn out when `O[C@H]1[C@H](O)CN(C[C@H]2CCCN(c3ccc(C(F)(F)F)cn3)C2)C[C@@H]1O` [Example 170, (3S,4R,5R)-1-(((R)-1-(5-(trifluoromethyl)pyridin-2-yl)piperidin-3-yl)methyl)piperidine-3,4,5-triol] was run?
Its IC50 is less than 100 nM.

What about the “rat α-glu. (% inhib.)” value [1] of the same molecule?
The value was 14%.

What does the source list for `O[C@H]1[C@H](O)CN(Cc2ccc(OCC3CC3)cc2)C[C@@H]1O` [Example 200, (3S,4r,5R)-1-(4-(cyclopropylmethoxy)benzyl)piperidine-3,4,5-triol]?
IC50 (GBA2): < 100 nM; rat α-glu. (% inhib.) [1]: 7%

How did the IC50 (GBA2) turn out when `O[C@H]1[C@H](O)CN(C[C@H]2CCCN(c3ccc(C(F)(F)F)nc3)C2)C[C@@H]1O` [Example 171, (3S,4R,5R)-1-(((R)-1-(6-(trifluoromethyl)pyridin-3-yl)piperidin-3-yl)methyl)piperidine-3,4,5-triol] was run?
The IC50 was less than 100 nM.

What about the “rat α-glu. (% inhib.)” value [1] of the same molecule?
Its value is 1%.

Which IC50 (GBA2) does the source give for `CCCCOc1ccc(CN2C[C@@H](O)[C@H](O)[C@@H](O)C2)cc1` [Example 197, (3S,4r,5R)-1-(4-butoxybenzyl)piperidine-3,4,5-triol] here?
Its IC50 is less than 100 nM.

What about the “rat α-glu. (% inhib.)” value [1] of the same molecule?
The value was 5%.

For `O[C@H]1[C@H](O)CN(Cc2cccs2)C[C@@H]1O` [Example 205, (3S,4r,5R)-1-(thiophen-2-ylmethyl)piperidine-3,4,5-triol], which IC50 (GBA2) is on record?
Its IC50 is 1000 to 25000 nM.

What about the “rat α-glu. (% inhib.)” value [1] of the same molecule?
The value was 4%.

Which IC50 (GBA2) does the source give for `O[C@H]1[C@H](O)CN(C[C@@H]2CCN(c3nc(C(F)(F)F)cs3)C2)C[C@@H]1O` [Example 27, (3S,4S,5R)-1-(((S)-1-(4-(trifluoromethyl)thiazol-2-yl)pyrrolidin-3-yl)methyl)piperidine-3,4,5-triol] here?
Its IC50 is less than 100 nM.

And the “rat α-glu. (% inhib.)” value [1]?
The value was 2%.

Which IC50 (GBA2) does the source give for `O[C@H]1[C@H](O)CN(C[C@@H]2CCCN(c3cncc(C(F)(F)F)c3)C2)C[C@@H]1O` [Example 175, (3S,4S,5R)-1-(((S)-1-(5-(trifluoromethyl)pyridin-3-yl)piperidin-3-yl)methyl)piperidine-3,4,5-triol] here?
The IC50 was 100 to 1000 nM.

What about the “rat α-glu. (% inhib.)” value [1] of the same molecule?
Its value is 3%.

Which IC50 (GBA2) does the source give for `O=C(C1CCCCC1)N1CCC(F)(CN2C[C@@H](O)[C@H](O)[C@@H](O)C2)CC1` [Example 191, Cyclohexyl(4-fluoro-4-(((3S,4r,5R)-3,4,5-trihydroxypiperidin-1-yl)methyl)piperidin-1-yl)methanone] here?
Its IC50 is 100 to 1000 nM.

What about the “rat α-glu. (% inhib.)” value [1] of the same molecule?
Its value is 1%.

Which “rat α-glu. (% inhib.)” value [1] does the source give for `OC[C@@H]1[C@@H](O)[C@H](O)[C@@H](O)CN1CCCCCOCC12CC3CC(CC(C3)C1)C2` [AMP-DNM, (2R,3R,4R,5S)-1-(5-((3R,5R,7R)-adamantan-1-ylmethoxy)pentyl)-2-(hydroxymethyl)piperidine-3,4,5-triol, reference compound] here?
The value was 85%.

For `CCCCN1C[C@H](O)[C@@H](O)[C@H](O)[C@H]1CO` [NB-DNJ, (2R,3R,4R,5S)-1-butyl-2-(hydroxymethyl)piperidine-3,4,5-triol, reference compound], which “rat α-glu. (% inhib.)” value [1] is on record?
Its value is 98%.
